Measurements: ChEMBL document CHEMBL5608161, “Identification of 4-(6-((2-methoxyphenyl)amino)pyrazin-2-yl)benzoic acids as CSNK2A inhibitors with antiviral activity and improved selectivity over PIM3” (Bioorg Med Chem Lett, 2024)
Activity calls are given as the source filed them. The calls are words filed in the database; no cut-off is given here.

How the values were obtained:
[1] = biological target: Serine/threonine-protein kinase pim-1 (Homo sapiens) (UniProt P11309); test: Binding affinity to PIM1 (unknown origin) assessed as melting temperature by thermal shift assay
Chain of Serine/threonine-protein kinase pim-1 (Homo sapiens) (P11309 whole entry, looked up): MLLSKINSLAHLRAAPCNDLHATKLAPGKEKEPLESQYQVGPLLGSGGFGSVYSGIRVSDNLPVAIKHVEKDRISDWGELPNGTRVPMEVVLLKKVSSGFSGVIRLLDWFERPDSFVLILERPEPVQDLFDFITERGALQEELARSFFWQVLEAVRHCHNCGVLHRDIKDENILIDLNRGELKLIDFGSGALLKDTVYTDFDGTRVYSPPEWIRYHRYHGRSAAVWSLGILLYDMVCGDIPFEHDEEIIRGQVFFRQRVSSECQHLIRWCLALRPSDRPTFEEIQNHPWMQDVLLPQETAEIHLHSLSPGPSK

[2] = biological target: T1, Dual specificity tyrosine-phosphorylation-regulated kinase 2 (Homo sapiens) (UniProt Q92630); test: Binding affinity to DYRK2 (unknown origin) assessed as melting temperature by thermal shift assay
T1 sequence (whole entry): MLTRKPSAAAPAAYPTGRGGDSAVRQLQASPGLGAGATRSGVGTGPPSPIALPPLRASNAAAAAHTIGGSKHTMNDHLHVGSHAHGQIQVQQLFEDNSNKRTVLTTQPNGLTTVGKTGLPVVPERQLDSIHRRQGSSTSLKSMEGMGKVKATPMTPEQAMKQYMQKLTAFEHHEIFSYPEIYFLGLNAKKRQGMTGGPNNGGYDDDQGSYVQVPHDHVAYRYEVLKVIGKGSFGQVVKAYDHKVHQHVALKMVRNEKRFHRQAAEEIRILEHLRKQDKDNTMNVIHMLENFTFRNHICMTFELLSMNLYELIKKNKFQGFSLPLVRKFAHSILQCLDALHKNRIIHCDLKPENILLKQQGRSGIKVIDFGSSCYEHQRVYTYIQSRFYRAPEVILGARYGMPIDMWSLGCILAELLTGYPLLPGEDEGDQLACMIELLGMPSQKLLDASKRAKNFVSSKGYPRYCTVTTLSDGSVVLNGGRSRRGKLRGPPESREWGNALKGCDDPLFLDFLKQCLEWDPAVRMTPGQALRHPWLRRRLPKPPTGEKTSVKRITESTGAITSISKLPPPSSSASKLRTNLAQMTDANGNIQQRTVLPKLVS

[3] = biological target: Death-associated protein kinase 3 (Homo sapiens) (UniProt O43293); test: Binding affinity to DAPK3 (unknown origin) assessed as melting temperature by thermal shift assay
Chain of Death-associated protein kinase 3 (Homo sapiens) (O43293 whole entry, looked up): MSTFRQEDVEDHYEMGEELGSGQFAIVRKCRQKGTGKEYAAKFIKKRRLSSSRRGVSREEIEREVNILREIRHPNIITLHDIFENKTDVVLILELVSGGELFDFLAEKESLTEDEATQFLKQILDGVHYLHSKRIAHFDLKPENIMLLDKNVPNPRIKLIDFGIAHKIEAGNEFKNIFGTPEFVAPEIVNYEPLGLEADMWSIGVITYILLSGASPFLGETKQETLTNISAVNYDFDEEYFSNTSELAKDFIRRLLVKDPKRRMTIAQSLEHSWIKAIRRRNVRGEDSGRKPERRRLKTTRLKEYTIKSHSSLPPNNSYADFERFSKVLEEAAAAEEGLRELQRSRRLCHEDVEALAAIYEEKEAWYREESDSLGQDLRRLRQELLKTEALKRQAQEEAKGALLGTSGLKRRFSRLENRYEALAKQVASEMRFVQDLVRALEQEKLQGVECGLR

[4] = biological target: BMP-2-inducible protein kinase (Homo sapiens) (UniProt Q9NSY1); test: Binding affinity to BIKE (unknown origin) assessed as melting temperature by thermal shift assay
Chain of BMP-2-inducible protein kinase (Homo sapiens) (Q9NSY1 whole entry, looked up): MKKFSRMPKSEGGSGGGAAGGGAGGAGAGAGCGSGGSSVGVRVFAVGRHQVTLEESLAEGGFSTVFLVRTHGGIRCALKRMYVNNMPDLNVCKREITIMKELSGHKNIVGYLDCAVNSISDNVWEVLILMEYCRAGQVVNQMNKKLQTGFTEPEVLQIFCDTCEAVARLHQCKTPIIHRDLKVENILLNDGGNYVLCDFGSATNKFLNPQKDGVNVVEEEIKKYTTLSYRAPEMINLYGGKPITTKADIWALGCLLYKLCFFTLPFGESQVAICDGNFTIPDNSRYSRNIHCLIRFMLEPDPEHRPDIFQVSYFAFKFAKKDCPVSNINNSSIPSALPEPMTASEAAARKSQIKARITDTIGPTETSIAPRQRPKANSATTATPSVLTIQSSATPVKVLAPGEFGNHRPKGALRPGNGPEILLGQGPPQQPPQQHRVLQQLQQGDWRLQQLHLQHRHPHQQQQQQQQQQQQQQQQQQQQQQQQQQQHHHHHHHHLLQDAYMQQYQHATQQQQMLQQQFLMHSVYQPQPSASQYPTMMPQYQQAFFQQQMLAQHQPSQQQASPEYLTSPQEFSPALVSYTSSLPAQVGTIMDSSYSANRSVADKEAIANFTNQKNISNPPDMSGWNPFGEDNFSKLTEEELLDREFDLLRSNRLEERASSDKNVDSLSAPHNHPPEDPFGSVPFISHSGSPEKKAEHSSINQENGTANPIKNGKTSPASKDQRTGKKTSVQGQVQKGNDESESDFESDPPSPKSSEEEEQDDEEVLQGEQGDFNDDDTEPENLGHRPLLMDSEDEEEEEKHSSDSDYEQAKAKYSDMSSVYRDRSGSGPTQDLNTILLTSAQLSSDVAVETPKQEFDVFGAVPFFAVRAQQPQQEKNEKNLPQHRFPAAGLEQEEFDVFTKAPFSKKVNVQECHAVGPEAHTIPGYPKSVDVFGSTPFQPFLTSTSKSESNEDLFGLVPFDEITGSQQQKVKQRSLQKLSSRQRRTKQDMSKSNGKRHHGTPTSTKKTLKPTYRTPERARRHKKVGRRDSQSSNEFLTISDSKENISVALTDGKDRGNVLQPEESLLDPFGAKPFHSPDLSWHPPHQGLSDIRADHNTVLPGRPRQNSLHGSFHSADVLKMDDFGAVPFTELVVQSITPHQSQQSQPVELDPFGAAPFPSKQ

[5] = biological target: T2, Mitogen-activated protein kinase 15 (Homo sapiens) (UniProt Q8TD08); test: Binding affinity to MAPK15 (unknown origin) assessed as melting temperature by thermal shift assay
T2 sequence (whole entry): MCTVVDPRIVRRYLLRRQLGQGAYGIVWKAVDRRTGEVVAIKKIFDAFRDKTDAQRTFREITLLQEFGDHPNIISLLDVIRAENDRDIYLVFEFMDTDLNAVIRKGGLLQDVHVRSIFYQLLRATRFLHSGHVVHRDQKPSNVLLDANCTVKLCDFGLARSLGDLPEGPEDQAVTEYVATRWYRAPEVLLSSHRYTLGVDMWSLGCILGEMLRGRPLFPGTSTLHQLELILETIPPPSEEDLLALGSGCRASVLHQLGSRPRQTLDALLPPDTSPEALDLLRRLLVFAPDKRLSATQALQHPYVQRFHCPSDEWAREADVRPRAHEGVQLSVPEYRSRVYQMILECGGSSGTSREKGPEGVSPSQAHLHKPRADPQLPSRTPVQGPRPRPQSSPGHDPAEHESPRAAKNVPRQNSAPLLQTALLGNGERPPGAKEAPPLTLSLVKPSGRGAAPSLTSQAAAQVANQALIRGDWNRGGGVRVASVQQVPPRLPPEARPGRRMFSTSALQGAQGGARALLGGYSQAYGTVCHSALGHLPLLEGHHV

HEK293 = test: Inhibition of Nano Luc-fused CSNK2A (unknown origin) expressed in HEK293 cells using NanoGlo as substrate at 10 uM by NanoBRET In-cell target engagement assay; format: cell-based; settings: Homo sapiens
cells = settings: Homo sapiens, HEK293
Description: Inhibition of Nano Luc-fused CSNK2A (unknown origin) expressed in HEK293 cells using NanoGlo as substrate by NanoBRET In-cell target engagement assay

Murine hepatitis virus = test: microbe, parasite or virus in culture; settings: Murine coronavirus, DB
Description: Antiviral activity against MHV expressing nLuc infected in human DB cells assessed as inhibition of viral replication

Structure (SMILES): COc1ccc(OC(C)C)cc1Nc1cncc(-c2ccc(C(=O)O)cc2)n1
- Tm [1]: > 9 °C
- Tm [2]: > 9 °C
- Tm [3]: > 9 °C
- Tm [4]: > 9 °C
- Tm [5]: > 9 °C

Structure (SMILES): CC(C)Nc1ccc2cnn(-c3cncc(-c4ccc(S(N)(=O)=O)cc4)n3)c2c1
- inhibition (HEK293): inactive

Structure (SMILES): O=C(O)c1ccc(-c2cncc(-n3ncc4ccc(NCCN5CCOCC5)cc43)n2)cc1
- IC50 (cells): 2600 nM

Structure (SMILES): CC(C)C(=O)OC[C@H]1O[C@@H](n2cc/c(=N\O)[nH]c2=O)[C@H](O)[C@@H]1O [MOLNUPIRAVIR]
- IC50 (Murine hepatitis virus): 1400 nM

Structure (SMILES): CC(=O)Nc1ccc2cnn(-c3cncc(-c4ccc(C(=O)O)cc4)n3)c2c1
- IC50 (cells): 4020 nM

Structure (SMILES): O=C(O)c1ccc(-c2cncc(-n3ncc4ccc(NC5CCCC5)cc43)n2)cc1
- IC50 (cells): 2200 nM

Structure (SMILES): CC(C)Nc1ccc2cnn(-c3cncc(-c4ccc(C(=O)O)c(Cl)c4)n3)c2c1
- IC50 (cells): 260 nM

Structure (SMILES): CC(C)Nc1ccc2cnn(-c3cncc(-c4ccc(C(N)=O)cc4)n3)c2c1
- inhibition (HEK293): inactive

Structure (SMILES): COc1cc(-c2cncc(-n3ncc4ccc(NC(C)C)cc43)n2)ccc1C(=O)O
- inhibition (HEK293): inactive
